Assays:
[1] = tested on: BKII (recombinant butyrate kinase derived from Acetoanaerobium sticklandii); test: Substrate specificity of butyrate kinase BKII; type: biochemical; conditions: 100 mM sodium salt of fatty acid in second reagent, pH 7.5
Description: (§1) Various fatty acids shown in Table 1 were used as a substrate. The measurement was performed using a 7180 type Hitachi automatic analyzer (Hitachi High-Tech Corporation). […] PHARMA CORPORATION) • 5 U/mL ADP-HK II (ADP dependent hexokinase: […] PHARMA CORPORATION) […] In the composition of the second reagent, “sodium salts of various fatty acids” means any one kind of sodium caprylate, sodium caproate, sodium valerate, sodium isovalerate, sodium butyrate, sodium isobutyrate, sodium propionate, sodium acetate, sodium lactate, and sodium succinate. Isobutyric acid, valeric acid, isovaleric acid, caproic acid, and octanoic acid, which are commercially available fatty acids and are not sold as sodium salts, were adjusted to pH 7.5 with sodium hydroxide. […] [Measurement Parameters of Automatic Analyzer] • Analysis method: […]

[2] = tested on: BKIII (recombinant butyrate kinase derived from Thermosediminibacter oceani); test: Substrate specificity of butyrate kinase BKIII; type: biochemical; conditions: 100 mM sodium salt of fatty acid in second reagent, pH 7.5
Description: as §1

[3] = Measurement of recombinant butyrate kinase activity (ADP-HK/G6PDH coupled, NADPH at 340 nm); specific activity, Km and Vmax; type: biochemical; conditions: with respect to butyric acid
Description: The enzymatic activity of BKII and BKIII with respect to butyric acid was measured based on the amount of ADP produced. In the Example 1, ADP produced by the action of butyrate kinase is used to produce NADPH by the action of ADP dependent hexokinase and glucose-6-phosphate dehydrogenase (see FIG. 1), and the amount of ADP produced was measured based on the change in absorbance at 340 nm due to the increase in NADPH. The measurement was performed using a 7080 type Hitachi automatic analyzer (Hitachi High-Tech Corporation).
[Composition of First Reagent] • 50 mM Tris-HCl (pH 7.5) (Sigma-Aldrich Co. LLC.) • 2 mM ATP (pH 7.5) (Oriental Yeast Co., Ltd.) • 2 mM MgCl2 (FUJIFILM Wako Pure Chemical Corporation) • 20 mM glucose (FUJIFILM Wako Pure Chemical Corporation) • 100 mM sodium butyrate (FUJIFILM Wako Pure Chemical Corporation) • 1 mM NADP (FUJIFILM Wako Pure Chemical Corporation) • 5 U/mL G6PDH II (Glucose-6-phosphate dehydrogenase: T-51, ASAHI KASEI PHARMA CORPORATION) • 5 U/mL ADP-HK II (ADP dependent hexokinase: T-92, ASAHI KASEI PHARMA CORPORATION) • 0.1% TN-100 (ADEKA Corporation)
[Composition of BKII Diluent] • 50 mM Tris-HCl (pH 7.5) (Sigma-Aldrich Co. LLC.) • 10 mM KCl (FUJIFILM Wako Pure Chemical Corporation)
[Composition of BKIII Diluent] • 50 mM Potassium phosphate buffer (pH 7.0) (Sigma-Aldrich Co. LLC.) • 0.1% TN-100 (ADEKA Corporation)
[Measurement Parameters of Automatic Analyzer] • Analysis method: Rate-A • Measurement wavelength (secondary/primary): 700 nm/340 nm • Reaction time: 5 minutes • Photometry point: 11 to 16 • Sample volume: 3 μL • First reagent amount: 150 μL […]
The sample was dispensed into a cuvette, then the first reagent was added and stirred. […] The cuvette was irradiated with light and the change in absorption at 340 nm was measured between about 200 seconds and about 296 seconds after the addition of the first reagent. […] The activity value (U/mL) of butyrate kinase was calculated from the following formula by defining the amount of enzyme that phosphorylates 1 μmol of butyric acid per minute as 1 U and using the value of the absorbance change per minute (ΔmAbs/min) calculated from the absorbance at the photometry point and the millimole extinction coefficient (c=6.3) of […] at 340 nm. […]
The specific activity (U/mg) is the activity value per 1 mg of enzyme. The protein (enzyme) concentrations of the BKII solution obtained in Reference Example 1 and the BKIII solution obtained in Reference Example 3 were quantified by the Bradford method, and the specific activities of BKII and BKIII with respect to butyric acid under the measurement conditions of Example 1 were calculated. […]
The Km and Vmax of BKII and BKIII with respect to butyric acid under the measurement conditions of Example 1 were determined by Lineweaver-Burk plot.

[4] = Thermal stability of recombinant butyrate kinase (remaining activity); type: physicochemical; conditions: for remaining activity: after incubating at 65° C. for 30 minutes, 50 mM potassium phosphate pH 7, 0.1% TN-100, about 1 mg/mL
Description: The thermal stability of BKII was examined based on the remaining activity after incubating approximately 0.3 mg/mL BKII at each temperature of 4 to 50° C. for 30 minutes in 10 mM Tris-HCl buffer (pH 7.5) containing 100 mM KCl. The thermal stability of BKIII was examined based on the remaining activity after incubating approximately 1 mg/mL BKIII in 50 mM potassium phosphate buffer (pH 7) containing 0.1% TN-100 (ADEKA Corporation) at each temperature of 4 to 80° C. for 30 minutes. The remaining activity was measured in the same manner as in Example 1. From FIGS. 12 and 13, the thermal stability (remaining activity) of BKII was 50% or more after treatment at 37° C. for 30 minutes, and the thermal stability (remaining activity) of BKIII was 85% or more after treatment at 70° C. for 30 minutes.
The thermal stability of BKIII, Thermosediminibacter oceani-derived butyrate kinase (ToBK2) prepared in Reference Example 4, Natranaerobius thermophilus-derived butyrate kinase (NtBK) prepared in Reference Example 5, and Symbiobacterium thermophilum-derived butyrate kinase (StBK) prepared in Reference Example 6 were compared. Specifically, each butyrate kinase was added to a 50 mM potassium phosphate buffer (pH 7) containing 0.1% TN-100 so that the concentration is about 1 mg/mL, and the remaining activity after incubating at 65° C. for 30 minutes was measured. The remaining activity was measured in the same manner as in Example 1.

## CC(O)C(=O)O (stereo not shown) [Lactic acid]
[1]
  substrate specificity, relative value when the activity value with respect to butyric acid is 100: 0%
[2]
  substrate specificity, relative value when the activity value with respect to butyric acid is 100: 0%

## CCCCCC(=O)O [Caproic acid]
[1]
  substrate specificity, relative value when the activity value with respect to butyric acid is 100: 22%
[2]
  substrate specificity, relative value when the activity value with respect to butyric acid is 100: 56%

## CCC(=O)O [Propionic acid]
[1]
  substrate specificity, relative value when the activity value with respect to butyric acid is 100: 62%
[2]
  substrate specificity, relative value when the activity value with respect to butyric acid is 100: 41%

## O=C(O)CCC(=O)O [Succinic acid]
[1]
  substrate specificity, relative value when the activity value with respect to butyric acid is 100: 2%
[2]
  substrate specificity, relative value when the activity value with respect to butyric acid is 100: 0%

## CCCCCCCC(=O)O [Octanoic acid]
[1]
  substrate specificity, relative value when the activity value with respect to butyric acid is 100: 0%
[2]
  substrate specificity, relative value when the activity value with respect to butyric acid is 100: 0%

## CCCCC(=O)O [Valeric acid]
[1]
  substrate specificity, relative value when the activity value with respect to butyric acid is 100: 161%
[2]
  substrate specificity, relative value when the activity value with respect to butyric acid is 100: 138%

## CC(C)CC(=O)O [Isovaleric acid]
[1]
  substrate specificity, relative value when the activity value with respect to butyric acid is 100: 133%
[2]
  substrate specificity, relative value when the activity value with respect to butyric acid is 100: 148%

B1: BKII: recombinant butyrate kinase derived from Acetoanaerobium sticklandii obtained in Reference Example 1 (T7 tag and His tag; SEQ ID NO: 17) (protein, listed as Acetoanaerobium sticklandii)
chain: MEGTMSTYKILAINPGSTSTKIAVYENETQIMEKTLRHSTEEINKYEKIFDQFEFRKNVIVDAVSEAGIAIEELDAVVGRGGLLKPIKGGTYEVSDELIAGLKEPYLGEHASNLGGIIAKEIADAALAPSFIVDPVVVDEMNDVARISGMPEIPRFSIFHALNQKATARRFASEIGKSYEDINVIVAHMGGGVSVGAHEKGRVIDVNNALDGEGPFSPERAGGLPVGDLAKLCFSGKYTHAQIKKLLKGEGGIVAYLGTNDARDVEKMIAEGDEKAKLIYEAMAYQVAKEIGSCATVLKGKVDAIILTGGIAYSEMITTWIKERVSFIADVKIYAGEDEMSALAQGALRVLREEEKPQRYEA
modifications: T7 tag and His tag
[3]; enzyme solution, 37° C., Tris-HCl pH 7.5
  activity value of butyrate kinase: about 340 U/mL
[3]; Lineweaver-Burk plot
  Km: 4.2 mM
  Vmax: 1100 U/mg
[3]; measurement conditions of Example 1, protein by Bradford method
  specific activity: about 337 U/mg
[4]; after treatment at 37° C. for 30 minutes, 10 mM Tris-HCl pH 7.5, 100 mM KCl
  thermal stability (remaining activity): ≥ 50%

B2: ToBK2: Thermosediminibacter oceani-derived butyrate kinase prepared in Reference Example 4 (SEQ ID NO: 21, His tag) (protein, listed as Thermosediminibacter oceani)
chain: MEKFRILAINPGSTSTKISIFHGEEEVFTENIVHDYEELKKFKNVIEQEGYRYEAILNALAARGYSLDEIDVVVARGGILRPVKAGTYRINDLMLEDLKDAVAGEHASNVAAFIAHRIGAEKGIPAYIVDPVSVDEMEDVARISGLDGIERKSLSHALNIRRVIYKVSEKFGKDPGELNFIVAHLGGGISIGAIRRGQMVDVESANCEGPFSPERSGGLPILELIDLCFSGRFTKDELKRRLIQEGGVYSYLGTKDIREVEERTRSGDKKAALILEAMVYQIAKCIGQMATVLKGDVDFIILTGGIAKSDYISECIADRVKFIAPVERVPGEEEMKALAEAACRVMTGREKVLDYGGGE
modifications: His tag
[4]
  remaining activity: 60.5%

B3: NtBK: Natranaerobius thermophilus-derived butyrate kinase prepared in Reference Example 5 (SEQ ID NO: 23, His tag) (protein)
chain: MKQEHRLLVINPGSTSTKIAVYEGESPLIEKKLEHSPEELNKFQDIIDQYDFRKDSILNFLDEQGMNFNKLDAVVARGGLLKPISGGTFKVNDLMVEHLRQGYQGEHASNLGGIIAKEISNQLDIPAYIVDPVVVDELQDIARISGFEPIERKSIFHALNHKAVARKAAAQLGKKYEEANLVVVHLGGGISVGAHNCGDVIDVNNALDGEGPFSPERSGGLPNGDLVRYIDEHNLTWKELKRQLVGNGGLVSYLDTNDGKKVQEMIQSGDEKAEKVYEAMIYQIAKEIGSCAVVLKGELDAIVLTGGLAHDEYLVSRMKEYIKFLGEILVFPGEDEMQSLAEGGLRVLRNEETPKDYS
modifications: His tag; Natranaerobius thermophiles
[4]
  remaining activity: 14.7%

B4: StBK: Symbiobacterium thermophilum-derived butyrate kinase prepared in Reference Example 6 (SEQ ID NO: 25, His tag) (protein, listed as Symbiobacterium thermophilum)
chain: MQQRLLIINPGSTSTKIAVYDDDSPLFAETLRHSAADLACFRDVAAQFPFRRDLILEALDAHGVSLSSLTAVVGRGGLLRPVRGGTYRVDAAMLAELSRAAHGEHASNLGALLAHEIAQAAGGVPAFIVDPVVVDELEPVARLTGLPEMPRRSVFHALNQKAVARRAAADLGRAYTEVNLVVVHLGGGISVGAHRRGRVVDVNNALDGEGPMAPERAGTVPSLGLVHLAFSWQHTLREVGRMLVGRGGLVAHVGTNDARRVEERIAAGDEAARVAYRAMAYQVAKEVGRAAVALGGQVDRIVLTGGLAHSEMLTGWIAEQVEWIAPVAVYPGEDEMAALAAGALRVLRGEEPAQVYGEAGE
modifications: His tag
[4]
  remaining activity: 48.7%

— US11773379B2, “Enzymes and reagents for measurement of short chain fatty acids” (SYSMEX CORPORATION, priority 2018, dated 2023)
